Results from PMC5931475, “Deciphering the molecular determinants of cholinergic anthelmintic sensitivity in nematodes: When novel functional validation approaches highlight major differences between the model Caenorhabditis elegans and parasitic species” (PLoS Pathogens, 2018).

Legend:
[1] = target: T1, composite Cel-L-AChR with Dim-ACR-8 (29/38/63/L1 + Dim-ACR-8); assay: two-electrode voltage clamp, Xenopus oocytes; type: cell-based, Caenorhabditis elegans; Dirofilaria immitis; settings: read-out: Lev EC50; agonist; responses normalized to 100 μM ACh
T1 construct: mixed-species complex of whole subunits; cRNA in Xenopus laevis oocytes with C. elegans RIC-3, UNC-50, UNC-74; LEV-8 replaced by D. immitis ACR-8

[2] = system: T1, composite Cel-L-AChR with Dim-ACR-8 (29/38/63/L1 + Dim-ACR-8); set-up: species or system Xenopus laevis oocytes; Agonist-evoked currents in cRNA-injected oocytes, concentration-response normalized to 100 uM ACh; settings: Imax as % of 100 uM ACh response; agonist

T1 sequence (A0A2I6TEL0 22-518): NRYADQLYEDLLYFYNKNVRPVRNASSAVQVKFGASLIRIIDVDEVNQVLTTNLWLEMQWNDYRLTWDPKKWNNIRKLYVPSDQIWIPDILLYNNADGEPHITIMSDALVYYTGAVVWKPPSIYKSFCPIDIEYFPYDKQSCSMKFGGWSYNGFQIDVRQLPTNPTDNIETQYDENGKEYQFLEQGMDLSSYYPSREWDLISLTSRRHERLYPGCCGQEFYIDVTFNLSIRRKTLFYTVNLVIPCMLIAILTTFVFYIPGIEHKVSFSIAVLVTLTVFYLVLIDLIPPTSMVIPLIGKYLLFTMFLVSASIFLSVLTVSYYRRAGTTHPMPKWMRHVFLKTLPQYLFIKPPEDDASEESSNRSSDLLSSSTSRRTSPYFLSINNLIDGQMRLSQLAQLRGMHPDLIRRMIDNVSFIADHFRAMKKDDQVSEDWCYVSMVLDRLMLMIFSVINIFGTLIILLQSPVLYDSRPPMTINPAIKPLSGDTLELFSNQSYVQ
T1 sequence (Q23022 17-511, further chain): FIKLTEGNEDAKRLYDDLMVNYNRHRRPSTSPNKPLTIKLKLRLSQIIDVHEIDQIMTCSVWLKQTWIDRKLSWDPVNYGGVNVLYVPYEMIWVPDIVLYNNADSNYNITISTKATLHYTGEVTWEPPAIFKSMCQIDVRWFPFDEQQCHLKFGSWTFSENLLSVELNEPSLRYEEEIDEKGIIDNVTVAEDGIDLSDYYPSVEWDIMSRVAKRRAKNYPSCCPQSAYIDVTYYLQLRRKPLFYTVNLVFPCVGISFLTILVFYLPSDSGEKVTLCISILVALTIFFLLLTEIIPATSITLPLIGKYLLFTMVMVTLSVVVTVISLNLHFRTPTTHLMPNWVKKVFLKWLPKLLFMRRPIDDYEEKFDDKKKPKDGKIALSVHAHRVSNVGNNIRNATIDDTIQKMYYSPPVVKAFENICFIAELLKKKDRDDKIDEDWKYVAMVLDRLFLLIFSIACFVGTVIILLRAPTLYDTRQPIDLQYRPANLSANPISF
T1 sequence (Q9N587 24-502, further chain): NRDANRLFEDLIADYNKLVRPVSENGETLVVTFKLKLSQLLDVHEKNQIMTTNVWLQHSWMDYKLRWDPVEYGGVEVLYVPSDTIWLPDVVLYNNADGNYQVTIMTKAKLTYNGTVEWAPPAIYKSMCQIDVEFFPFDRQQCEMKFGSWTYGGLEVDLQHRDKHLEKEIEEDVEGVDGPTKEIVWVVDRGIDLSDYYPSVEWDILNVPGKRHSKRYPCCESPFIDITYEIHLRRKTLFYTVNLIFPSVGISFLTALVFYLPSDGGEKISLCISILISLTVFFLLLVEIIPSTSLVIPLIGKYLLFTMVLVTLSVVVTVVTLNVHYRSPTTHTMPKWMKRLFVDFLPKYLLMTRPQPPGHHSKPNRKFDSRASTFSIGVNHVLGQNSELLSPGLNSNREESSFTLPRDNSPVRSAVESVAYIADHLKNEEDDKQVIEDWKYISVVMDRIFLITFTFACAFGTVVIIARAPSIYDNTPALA
T1 sequence (P48181 27-493, further chain): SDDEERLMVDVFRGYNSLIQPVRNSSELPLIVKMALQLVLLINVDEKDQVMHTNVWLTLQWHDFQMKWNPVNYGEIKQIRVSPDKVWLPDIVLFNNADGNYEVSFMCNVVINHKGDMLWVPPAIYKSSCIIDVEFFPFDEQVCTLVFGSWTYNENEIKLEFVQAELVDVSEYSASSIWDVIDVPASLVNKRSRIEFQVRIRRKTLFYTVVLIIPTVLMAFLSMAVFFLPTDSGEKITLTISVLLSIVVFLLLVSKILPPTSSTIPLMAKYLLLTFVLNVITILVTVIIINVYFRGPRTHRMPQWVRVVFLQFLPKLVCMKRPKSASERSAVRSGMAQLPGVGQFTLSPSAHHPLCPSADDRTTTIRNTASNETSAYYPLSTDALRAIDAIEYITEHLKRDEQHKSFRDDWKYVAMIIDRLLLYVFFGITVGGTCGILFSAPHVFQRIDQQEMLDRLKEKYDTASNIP
T1 sequence (Q27218 32-507, further chain): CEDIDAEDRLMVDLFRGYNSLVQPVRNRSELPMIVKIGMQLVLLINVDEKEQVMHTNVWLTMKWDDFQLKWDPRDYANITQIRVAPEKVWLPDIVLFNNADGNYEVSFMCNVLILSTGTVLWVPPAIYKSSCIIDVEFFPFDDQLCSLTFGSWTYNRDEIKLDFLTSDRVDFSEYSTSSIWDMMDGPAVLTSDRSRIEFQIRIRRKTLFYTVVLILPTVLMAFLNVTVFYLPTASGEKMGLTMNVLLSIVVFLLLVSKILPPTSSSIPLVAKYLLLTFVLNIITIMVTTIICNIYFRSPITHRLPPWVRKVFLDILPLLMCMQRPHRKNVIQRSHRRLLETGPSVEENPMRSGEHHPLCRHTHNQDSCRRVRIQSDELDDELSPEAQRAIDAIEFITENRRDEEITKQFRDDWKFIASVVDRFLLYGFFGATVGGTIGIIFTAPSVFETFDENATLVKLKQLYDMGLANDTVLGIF

## c1ccc([C@H]2CN3CCSC3=N2)cc1 [levamisole]
[1]
  EC50: 5.9 ± 1.3 µM
[2]
  Lev Imax: 29.0 ±1.2%
